# From article PMC6934184, “Selective DNA-PKcs inhibition extends the therapeutic index of localized radiotherapy and chemotherapy” (The Journal of Clinical Investigation, 2019)
# Molecular target: T1, CDK5/p25 (Homo sapiens, UniProt Q00535)
# T1 construct: purchased Thermo Fisher Scientific (Life Technologies) SelectScreen
# Assay: SelectScreen Z'LYTE
# Assay type: biochemical
# How it was run: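 Percent values come from Thermo SelectScreen profiling of NU5455, combining activity and binding assays. CSF1R was run in Z'LYTE format at Km app ATP, and CAMK1 in Adapta format with ATP listed at 10.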
# T1 sequence (Q00535 whole entry): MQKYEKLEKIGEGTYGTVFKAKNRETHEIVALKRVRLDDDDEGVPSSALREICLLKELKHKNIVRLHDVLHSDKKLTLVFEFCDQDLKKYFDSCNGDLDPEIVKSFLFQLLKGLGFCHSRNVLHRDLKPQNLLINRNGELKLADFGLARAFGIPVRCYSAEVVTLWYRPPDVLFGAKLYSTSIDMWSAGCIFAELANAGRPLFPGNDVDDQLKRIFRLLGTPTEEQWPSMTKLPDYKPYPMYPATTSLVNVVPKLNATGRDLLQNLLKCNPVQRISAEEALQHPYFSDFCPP
# T1 sequence (Q15078 99-307 partner limits assumed): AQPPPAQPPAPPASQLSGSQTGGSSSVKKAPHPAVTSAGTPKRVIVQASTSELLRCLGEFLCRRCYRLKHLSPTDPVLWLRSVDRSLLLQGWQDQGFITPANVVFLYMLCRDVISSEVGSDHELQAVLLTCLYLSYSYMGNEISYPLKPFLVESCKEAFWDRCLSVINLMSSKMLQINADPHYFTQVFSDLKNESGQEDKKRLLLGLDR
smiles,measurement,value
CN(C(=O)CN1CCOCC1)c1ccc2sc3c(-c4cccc5c(=O)cc(N6CC7CCC(C6)O7)oc45)cccc3c2c1 [NU5455],inhibition at 1 µM,-1.1%
